Assay [1] deals with Cricetinae gen. sp. The assay is described as follows: The compound was evaluated for its ability to inhibit the human neutrophil elastase-induced lung hemorrhage in hamster by intravenous bolus administration of 100 mg/Kg dose. Type of assay: functional, Cricetulus griseus.
The test system of assay [2] is Cricetinae gen. sp. The assay is described as follows: The compound was evaluated for its ability to inhibit the human neutrophil elastase-induced lung hemorrhage in hamster by intravenous bolus administration of 30 mg/Kg dose. Type of assay: functional, Cricetulus griseus.
The next assay deals with T1, Neutrophil elastase (Homo sapiens, UniProt P08246).
T1 sequence (P08246 whole entry): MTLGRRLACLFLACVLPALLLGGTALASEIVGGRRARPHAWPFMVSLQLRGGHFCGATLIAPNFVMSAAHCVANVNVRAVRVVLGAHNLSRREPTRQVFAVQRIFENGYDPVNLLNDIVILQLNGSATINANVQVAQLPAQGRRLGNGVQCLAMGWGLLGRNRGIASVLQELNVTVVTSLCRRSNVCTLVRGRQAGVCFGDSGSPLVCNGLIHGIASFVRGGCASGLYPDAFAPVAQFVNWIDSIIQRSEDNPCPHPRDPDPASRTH
Nature of the assay: In vitro inhibition of the human neutrophil elastase-catalyzed hydrolysis of the synthetic substrate Suc-Ala-Pro-Ala-MCA.

The subject of assay [3] is Cricetinae gen. sp. Nature of the assay: The compound was evaluated for its ability to inhibit the HNE-induced lung hemorrhage in hamster by intravenous bolus administration of 10 mg/Kg dose. In kind it is functional, Cricetulus griseus.
Assay [4] concerns Cricetinae gen. sp. Nature of the assay: The compound was evaluated for its ability to inhibit the human neutrophil elastase-induced lung hemorrhage in hamster by intravenous bolus administration of 10 mg/Kg dose. In kind it is functional, Cricetulus griseus.
For assay [5], the system named is Cricetinae gen. sp. Nature of the assay: The compound was evaluated for its ability to inhibit the human neutrophil elastase-induced lung hemorrhage in hamster by intravenous bolus administration of 30 mg/kg dose. Type of assay: functional, Cricetulus griseus.
Assay [6] deals with Cricetinae gen. sp. The assay is described as follows: The compound was evaluated for its ability to inhibit the human neutrophil elastase-induced lung hemorrhage in hamster by intravenous bolus administration of 10 mg/kg dose. Type of assay: functional, Cricetulus griseus.

Structures are written as SMILES. pIC50: −log10 of the molar value.

Consider `CC(C)[C@H](NC(=O)[C@@H]1CCCN1C(=O)[C@H](NC(=O)COc1ccc(OCC(=O)O)cc1)C(C)C)C(=O)c1nc2ccccc2o1`, for which the inhibition in vivo (usually the change of the read-out against control, counted positive when it falls) at 100 mg/kg in the assay with Cricetinae gen. sp. [1] stood at 98%. Besides, the inhibition in vivo at 30 mg/kg in the assay on Cricetinae gen. sp. [2] was 56%.

Regarding `CCCCC(Oc1cccc2oc(C(=O)[C@@H](NC(=O)OCc3ccccc3)C(C)C)nc12)c1ccccc1` (stereo not given in full), the pIC50 (commonly the negative decadic logarithm of the IC50, by convention in mol/L) on Neutrophil elastase was less than 5.00.

As for `CC(C)[C@H](NC(=O)OCc1ccccc1)C(=O)c1nc2ccccc2o1`, at Neutrophil elastase, the pIC50 was less than 5.00. Regarding `CC(C)[C@H](NC(=O)COc1ccc(OCC(=O)O)cc1)C(=O)c1nc2c(OC(=O)C(C)(C)C)cccc2o1`, the inhibition in vivo at 100 mg/kg in the assay with Cricetinae gen. sp. [1] was 74%. The inhibition in vivo at 30 mg/kg in the assay with Cricetinae gen. sp. [2] came out at 13%. At Neutrophil elastase, the pIC50 is 6.89. On to `CC(C)[C@H](NC(=O)[C@@H]1CCCN1C(=O)[C@@H](NC(=O)COC(=O)c1ccc(OCC(=O)O)cc1)C(C)C)C(=O)c1nc2ccccc2o1`, for which the inhibition in vivo at 10 mg/kg in the assay on Cricetinae gen. sp. [3] stood at 12%. In addition, the inhibition in vivo at 30 mg/kg in the assay on Cricetinae gen. sp. [2] stood at 75%. At Neutrophil elastase, the pIC50 is 7.89. On Neutrophil elastase, `CCCCCOc1cccc2oc(C(=O)[C@@H](NC(=O)OCc3ccccc3)C(C)C)nc12` had a pIC50 of less than 5.00. Consider `CC(C)[C@H](NC(=O)[C@@H]1CCCN1C(=O)[C@@H](NC(=O)/C=C/C(=O)O)C(C)C)C(=O)c1nc2ccccc2o1`, for which the pIC50 on Neutrophil elastase is 7.14.

As to `CC(C)CCOc1cccc2oc(C(=O)[C@@H](NC(=O)[C@H]3CCCN3C(=O)COc3ccc(OCC(=O)O)cc3)C(C)C)nc12`, in the assay with Cricetinae gen. sp. [1], the inhibition in vivo at 100 mg/kg is 99%. Moreover, the inhibition in vivo at 30 mg/kg in the assay on Cricetinae gen. sp. [2] is -16%. For the same compound, the negative-log IC50 (pIC50) against Neutrophil elastase is 6.54.

Turning to `CC(C)[C@H](NC(=O)OCc1ccccc1)C(=O)c1nc2c(OCc3ccccc3)cccc2o1`, the pIC50 against Neutrophil elastase was less than 5.00. As to `CC(C)[C@H](NC(=O)[C@@H]1CCCN1C(=O)[C@@H](NC(=O)COc1ccc(SCC(C)(C)C(=O)O)cc1)C(C)C)C(=O)c1nc2ccccc2o1`, the inhibition in vivo at 100 mg/kg with Cricetinae gen. sp. [1] amounted to 99%. For the same compound, in the assay on Cricetinae gen. sp. [4], the inhibition in vivo at 10 mg/kg stood at 30%. Further, in the assay with Cricetinae gen. sp. [5], the inhibition in vivo at 30 mg/kg came to 86%. The compound further had a pIC50 against Neutrophil elastase of 8.46. With `CC(C)[C@H](NC(=O)[C@@H]1CCCN1C(=O)[C@@H](NC(=O)CNC(=O)c1ccc(OCC(=O)O)cc1)C(C)C)C(=O)c1nc2ccccc2o1`, in the assay with Cricetinae gen. sp. [6], the inhibition in vivo at 10 mg/kg was found to be 46%. Also, in the assay with Cricetinae gen. sp. [5], the inhibition in vivo at 30 mg/kg came out at 99%. Besides, the pIC50 against Neutrophil elastase is 7.48. In turn, `CC(C)[C@H](NC(=O)OCc1ccccc1)C(=O)c1nc2c(OCC(N)=O)cccc2o1` showed a negative logarithm of the IC50 (pIC50) against Neutrophil elastase of less than 5.00. Regarding `CC(C)[C@H](NC(=O)OCc1ccccc1)C(=O)c1nc2c(O)cccc2o1`, the pIC50 on Neutrophil elastase was less than 5.00.

Regarding `CC(C)CCOc1cccc2oc(C(=O)[C@@H](NC(=O)OCc3ccccc3)C(C)C)nc12`, at Neutrophil elastase, the pIC50 is 5.11. With `CC(C)[C@H](NC(=O)[C@@H]1CCCN1C(=O)[C@@H](NC(=O)N[C@H](C)C(=O)O)C(C)C)C(=O)c1nc2ccccc2o1`, the inhibition in vivo at 30 mg/kg with Cricetinae gen. sp. [2] worked out at 39%. In addition, the pIC50 against Neutrophil elastase was 6.55. On to `CC(C)[C@H](NC(=O)[C@H]1CCCN1C(=O)COc1ccc(OCC(=O)O)cc1)C(=O)c1nc2c(OC(=O)C(C)(C)C)cccc2o1`, for which, in the assay with Cricetinae gen. sp. [1], the inhibition in vivo at 100 mg/kg came to 96%. Moreover, the inhibition in vivo at 30 mg/kg in the assay with Cricetinae gen. sp. [2] is 66%. The compound also showed a pIC50 against Neutrophil elastase of 6.64. `COC(=O)COc1cccc2oc(C(=O)[C@@H](NC(=O)OCc3ccccc3)C(C)C)nc12`: the pIC50 at Neutrophil elastase was less than 5.00. On to `CC(C)[C@H](NC(=O)[C@@H]1CCCN1C(=O)[C@@H](NC(=O)COc1ccccc1OCC(=O)O)C(C)C)C(=O)c1nc2ccccc2o1`, for which the inhibition in vivo at 100 mg/kg in the assay with Cricetinae gen. sp. [1] turned out to be 90%. Further, in the assay on Cricetinae gen. sp. [4], the inhibition in vivo at 10 mg/kg was 37%. Further, the inhibition in vivo at 30 mg/kg in the assay on Cricetinae gen. sp. [2] worked out at 48%. Besides, at Neutrophil elastase, the pIC50 was 8.14. Take `CC(C)[C@H](NC(=O)OCc1ccccc1)C(=O)c1nc2c(OCc3cccc(C(F)(F)F)c3)cccc2o1`: the pIC50 against Neutrophil elastase is less than 5.00. At Neutrophil elastase, `CC(C)=CCOc1cccc2oc(C(=O)[C@@H](NC(=O)OCc3ccccc3)C(C)C)nc12` showed a pIC50 of less than 5.00. As for `CC(C)[C@H](NC(=O)[C@@H]1CCCN1C(=O)[C@@H](NC(=O)c1ccc(OCC(=O)O)cc1)C(C)C)C(=O)c1nc2ccccc2o1`, in the assay with Cricetinae gen. sp. [4], the inhibition in vivo at 10 mg/kg came out at 15%. Besides, the inhibition in vivo at 30 mg/kg in the assay on Cricetinae gen. sp. [2] is 60%. On Neutrophil elastase, this compound showed a pIC50 of 8.13. Turning to `CC(C)[C@H](NC(=O)OCc1ccccc1)C(=O)c1nc2c(OC(=O)C(C)(C)C)cccc2o1`, on Neutrophil elastase, the pIC50 is 6.35.

For `CC(C)[C@H](NC(=O)[C@@H]1CCCN1C(=O)[C@@H](NC(=O)CCC(=O)O)C(C)C)C(=O)c1nc2ccccc2o1`, the inhibition in vivo at 30 mg/kg with Cricetinae gen. sp. [2] stood at 61%. Also, on Neutrophil elastase, the negative logarithm of the IC50 (pIC50) is 7.18. In turn, `CC(C)[C@H](NC(=O)OCc1ccccc1)C(=O)c1nc2c(OCC(=O)O)cccc2o1` showed a pIC50 at Neutrophil elastase of less than 5.00. For `CC(C)[C@H](NC(=O)[C@@H]1CCCN1C(=O)[C@@H](NC(=O)COc1ccc(OCC(=O)O)cc1)C(C)C)C(=O)c1nc2c(OC(=O)C(C)(C)C)cccc2o1`, the inhibition in vivo at 100 mg/kg in the assay on Cricetinae gen. sp. [1] was 99%. Further, the inhibition in vivo at 30 mg/kg in the assay on Cricetinae gen. sp. [2] turned out to be 73%. Moreover, on Neutrophil elastase, the pIC50 was 8.05. On to `CCOc1cccc2oc(C(=O)[C@@H](NC(=O)OCc3ccccc3)C(C)C)nc12`, for which the pIC50 against Neutrophil elastase is less than 5.00. Still for that read-out and setting: in the case of `CC(C)[C@H](NC(=O)OCc1ccccc1)C(=O)c1nc2c(OCCN(C)C)cccc2o1` it was less than 5.00.
